This assay has as its target T1, KAT-II (kynurenine aminotransferase-II) (Homo sapiens, UniProt Q8N5Z0).
T1 construct: gene AADAT; recombinant KAT-II with a hexa-histidine tag, expressed in E. coli Rosetta 2
Kind of assay: HPLC assay of kynurenic acid formation with purified recombinant enzyme. The assay is classed as biochemical.

T1 sequence (Q8N5Z0 30-425): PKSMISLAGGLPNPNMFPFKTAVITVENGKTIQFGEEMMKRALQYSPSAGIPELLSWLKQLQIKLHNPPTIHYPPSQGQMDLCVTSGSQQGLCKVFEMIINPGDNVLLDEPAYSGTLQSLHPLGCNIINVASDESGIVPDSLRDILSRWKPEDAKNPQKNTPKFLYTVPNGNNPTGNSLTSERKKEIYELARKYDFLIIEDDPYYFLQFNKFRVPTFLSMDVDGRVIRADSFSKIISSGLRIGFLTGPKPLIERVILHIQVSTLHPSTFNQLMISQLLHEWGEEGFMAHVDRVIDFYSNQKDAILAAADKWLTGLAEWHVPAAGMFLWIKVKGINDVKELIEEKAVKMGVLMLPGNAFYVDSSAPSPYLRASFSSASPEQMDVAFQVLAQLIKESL

As for `NS(=O)(=O)c1ccc(N2C(=O)c3cc(Cl)c(Cl)cc3C2=O)cc1` [JN-01, 4-(5,6-dichloro-1,3-dioxo-1,3-dihydro-2H-isoindol-2-yl)benzenesulfonamide], the IC50 came out at 73.8 µM.

Take `NS(=O)(=O)c1ccc(CCN2C(=O)c3cc(Cl)c(Cl)cc3C2=O)cc1` [JN-02, 4-(5,6-dichloro-1,3-dioxo-1,3-dihydro-2H-isoindol-2-yl)ethyl benzenesulfonamide]: the IC50 worked out at 113 µM.

These data come from PMC5915280, “Improvement of kynurenine aminotransferase-II inhibitors guided by mimicking sulfate esters” (PLoS ONE, 2018).
